Data published in ChEMBL document CHEMBL3885861, “Open TG-GATES”.

Organism: Rattus norvegicus
Test: Open TG-GATES - Regimen: Daily Repeat
Assay type: toxicity, organism-based, Sprague-Dawley
Design: regimen Daily Repeat, gender Male, age 6 weeks
Details: in vivo, po, 1000 mg/kg, route gavage, dose level High; for APTT / Bas / Eos / Fbg / Hb / Ht / Lym / MCH / MCHC / MCV / Mono / Neu / PT / Plat / RBC / Ret / WBC: tissue Blood; for KIDNEY_L / KIDNEY_R / KIDNEY_TOTAL: tissue Kidney; for LIVER: tissue Liver; for A/G / ALP / ALT / AST / BUN / CRE / Ca / Cl / DBIL / GLC / IP / K / LDH / Na / PL / RALB / TBIL / TC / TG / TP / gamma-GTP: tissue Plasma

COC1=CC(=O)C[C@@H](C)[C@]12Oc1c(Cl)c(OC)cc(OC)c1C2=O [GRISEOFULVIN]
TERMINAL_BW (72 h, time 3 day): 225 g
APTT (72 h, time 3 day): 21.1 s
Bas (72 h, time 3 day): 0%
Eos (72 h, time 3 day): 1%
Fbg (72 h, time 3 day): 220.8 mg/dL
Hb (72 h, time 3 day): 13.5 g/dL
Ht (72 h, time 3 day): 39.9%
Lym (72 h, time 3 day): 79.2%
MCH (72 h, time 3 day): 21.2 pg
MCHC (72 h, time 3 day): 33.8%
MCV (72 h, time 3 day): 62.6 fL
Mono (72 h, time 3 day): 2.4%
Neu (72 h, time 3 day): 17%
PT (72 h, time 3 day): 12.5 s
Plat (72 h, time 3 day): 122 x10_4/uL
RBC (72 h, time 3 day): 637.2 x10_4/ul
Ret (72 h, time 3 day): 6.9%
WBC (72 h, time 3 day): 108.3 x10_2/uL
KIDNEY_L (72 h, time 3 day): 1 g
KIDNEY_R (72 h, time 3 day): 1 g
KIDNEY_TOTAL (72 h, time 3 day): 2 g
LIVER (72 h, time 3 day): 11.5 g
A/G (72 h, time 3 day): 1.6
ALP (72 h, time 3 day): 1064.4 IU/L
ALT (72 h, time 3 day): 40.6 IU/L
AST (72 h, time 3 day): 63.8 IU/L
BUN (72 h, time 3 day): 13.8 mg/dL
CRE (72 h, time 3 day): 0.4 mg/dL
Ca (72 h, time 3 day): 10.8 mg/dL
Cl (72 h, time 3 day): 103.6 meq/L
DBIL (72 h, time 3 day): 0.074 mg/dL
GLC (72 h, time 3 day): 213.4 mg/dL
IP (72 h, time 3 day): 7.8 mg/dL
K (72 h, time 3 day): 3.8 meq/L
LDH (72 h, time 3 day): 184.2 IU/L
Na (72 h, time 3 day): 140.2 meq/L
PL (72 h, time 3 day): 125.8 mg/dL
RALB (72 h, time 3 day): 3.4 g/dL
TBIL (72 h, time 3 day): 0.1 mg/dL
TC (72 h, time 3 day): 72.6 mg/dL
TG (72 h, time 3 day): 45 mg/dL
TP (72 h, time 3 day): 5.6 g/dL
gamma-GTP (72 h, time 3 day): 1.4 IU/L
TERMINAL_BW ([…], time 7 day): 266.7 g
TERMINAL_BW ([…], time 14 day): 318.3 g
TERMINAL_BW ([…], time 28 day): 423.7 g
APTT ([…], time 7 day): 21 s
Bas ([…], time 7 day): 0%
Eos ([…], time 7 day): 0.8%
Fbg ([…], time 7 day): 231.6 mg/dL
Hb ([…], time 7 day): 13.3 g/dL
Ht ([…], time 7 day): 38.9%
Lym ([…], time 7 day): 79.2%
MCH ([…], time 7 day): 21.5 pg
MCHC ([…], time 7 day): 34.2%
MCV ([…], time 7 day): 62.9 fL
Mono ([…], time 7 day): 3%
Neu ([…], time 7 day): 16.2%
PT ([…], time 7 day): 12.4 s
Plat ([…], time 7 day): 145.2 x10_4/uL
RBC ([…], time 7 day): 618 x10_4/ul
Ret ([…], time 7 day): 6.6%
WBC ([…], time 7 day): 110.8 x10_2/uL
APTT ([…], time 14 day): 20.2 s
Bas ([…], time 14 day): 0%
Eos ([…], time 14 day): 1%
Fbg ([…], time 14 day): 229.6 mg/dL
Hb ([…], time 14 day): 14.2 g/dL
Ht ([…], time 14 day): 42.1%
Lym ([…], time 14 day): 79.8%
MCH ([…], time 14 day): 21 pg
MCHC ([…], time 14 day): 33.8%
MCV ([…], time 14 day): 62 fL
Mono ([…], time 14 day): 3%
Neu ([…], time 14 day): 15.2%
PT ([…], time 14 day): 12.6 s
Plat ([…], time 14 day): 114.7 x10_4/uL
RBC ([…], time 14 day): 678.4 x10_4/ul
Ret ([…], time 14 day): 2.8%
WBC ([…], time 14 day): 112.6 x10_2/uL
APTT ([…], time 28 day): 24.8 s
Bas ([…], time 28 day): 0%
Eos ([…], time 28 day): 1%
Fbg ([…], time 28 day): 230.8 mg/dL
Hb ([…], time 28 day): 14.6 g/dL
Ht ([…], time 28 day): 43.2%
Lym ([…], time 28 day): 84.4%
MCH ([…], time 28 day): 20.4 pg
MCHC ([…], time 28 day): 33.9%
MCV ([…], time 28 day): 60.1 fL
Mono ([…], time 28 day): 2.4%
Neu ([…], time 28 day): 11.4%
PT ([…], time 28 day): 13 s
Plat ([…], time 28 day): 113.5 x10_4/uL
RBC ([…], time 28 day): 718.4 x10_4/ul
Ret ([…], time 28 day): 3.3%
WBC ([…], time 28 day): 158.4 x10_2/uL
KIDNEY_L ([…], time 7 day): 1.1 g
KIDNEY_R ([…], time 7 day): 1.1 g
KIDNEY_TOTAL ([…], time 7 day): 2.3 g
KIDNEY_L ([…], time 14 day): 1.3 g
KIDNEY_R ([…], time 14 day): 1.3 g
KIDNEY_TOTAL ([…], time 14 day): 2.6 g
KIDNEY_L ([…], time 28 day): 1.6 g
KIDNEY_R ([…], time 28 day): 1.5 g
KIDNEY_TOTAL ([…], time 28 day): 3.1 g
LIVER ([…], time 7 day): 13.5 g
LIVER ([…], time 14 day): 14.6 g
LIVER ([…], time 28 day): 19.4 g
A/G ([…], time 7 day): 1.3
ALP ([…], time 7 day): 845.8 IU/L
ALT ([…], time 7 day): 31.6 IU/L
AST ([…], time 7 day): 56.8 IU/L
BUN ([…], time 7 day): 15.2 mg/dL
CRE ([…], time 7 day): 0.4 mg/dL
Ca ([…], time 7 day): 10.8 mg/dL
Cl ([…], time 7 day): 103.8 meq/L
DBIL ([…], time 7 day): 0.064 mg/dL
GLC ([…], time 7 day): 207 mg/dL
IP ([…], time 7 day): 7.3 mg/dL
K ([…], time 7 day): 3.8 meq/L
LDH ([…], time 7 day): 150.2 IU/L
Na ([…], time 7 day): 142 meq/L
PL ([…], time 7 day): 126.8 mg/dL
RALB ([…], time 7 day): 3.4 g/dL
TBIL ([…], time 7 day): 0.1 mg/dL
TC ([…], time 7 day): 76.4 mg/dL
TG ([…], time 7 day): 45.4 mg/dL
TP ([…], time 7 day): 5.9 g/dL
gamma-GTP ([…], time 7 day): 1.2 IU/L
A/G ([…], time 14 day): 1.4
ALP ([…], time 14 day): 803.4 IU/L
ALT ([…], time 14 day): 32 IU/L
AST ([…], time 14 day): 56 IU/L
BUN ([…], time 14 day): 14.6 mg/dL
CRE ([…], time 14 day): 0.5 mg/dL
Ca ([…], time 14 day): 10.8 mg/dL
Cl ([…], time 14 day): 103 meq/L
DBIL ([…], time 14 day): 0.076 mg/dL
GLC ([…], time 14 day): 205.2 mg/dL
IP ([…], time 14 day): 7.4 mg/dL
K ([…], time 14 day): 4.2 meq/L
LDH ([…], time 14 day): 135.6 IU/L
Na ([…], time 14 day): 140.6 meq/L
PL ([…], time 14 day): 138.6 mg/dL
RALB ([…], time 14 day): 3.4 g/dL
TBIL ([…], time 14 day): 0.1 mg/dL
TC ([…], time 14 day): 81.4 mg/dL
TG ([…], time 14 day): 55.4 mg/dL
TP ([…], time 14 day): 5.9 g/dL
gamma-GTP ([…], time 14 day): 1 IU/L
A/G ([…], time 28 day): 1.3
ALP ([…], time 28 day): 500.8 IU/L
ALT ([…], time 28 day): 39.2 IU/L
AST ([…], time 28 day): 55 IU/L
BUN ([…], time 28 day): 14.8 mg/dL
CRE ([…], time 28 day): 0.5 mg/dL
Ca ([…], time 28 day): 10.5 mg/dL
Cl ([…], time 28 day): 103 meq/L
DBIL ([…], time 28 day): 0.062 mg/dL
GLC ([…], time 28 day): 234.6 mg/dL
IP ([…], time 28 day): 7.3 mg/dL
K ([…], time 28 day): 3.7 meq/L
LDH ([…], time 28 day): 159 IU/L
Na ([…], time 28 day): 140.6 meq/L
PL ([…], time 28 day): 138 mg/dL
RALB ([…], time 28 day): 3.4 g/dL
TBIL ([…], time 28 day): 0.1 mg/dL
TC ([…], time 28 day): 88.6 mg/dL
TG ([…], time 28 day): 38 mg/dL
TP ([…], time 28 day): 6.2 g/dL
gamma-GTP ([…], time 28 day): 0.8 IU/L
